From patent publication US20090175924A1, “COATED STENT” (BIONERIS AB, priority 2002, published 2009) come the findings set out here.

The test system of one data set is mice. The data set is classed as in vivo. The settings on record: intravenous. How it is done: A method described by S. Irwin (Psychopharmacologica, 1968, 13, 222) was used to detect general physiological, behavioural and toxic effects of a series of compounds. The tested compounds were administered intra veneously to mice (3 animals per compound and dose) and the behavioural modification and neurotoxicity symptoms such as mortality, sedation, excitation, aggressiveness, straub, writhes, convulsions, tremor, exophtalamos, salivation, lacrimation, piloerection, defecation, fear, traction, reactivity to touch, loss of righting reflex, sleep, motor incoordination, muscle tone, stereotypies, catalepsy, grasping, ptosis, difficulty in respiration, corneal reflex, analgesia and gait were recorded compared to a control group, Furthermore, rectal temperature and pupil diameter were recorded.

Data set [1] deals with Human pulmonary artery smooth muscle cells (HPASMCs). The data set can be described thus: FGF2-stimulated proliferation of smooth muscle cells (3H-thymidine incorporation). The settings on record: 1 nM FGF2, 24 hours. It counts as cell-based. As to the method: Vascular smooth muscle cell proliferation contributes to restenosis after coronary angioplasty. Human pulmonary artery smooth muscle cells (HPASMCs) were maintained in Medium 231 supplemented with Smooth muscle Growth Supplement. The cells, medium and supplement were obtained from Caascade Biologics Inc., Portland, Oreg., USA.
The cells were grown as monolayer culture in 100-mm diameter plastic tissue culture dishes (Nunc, Roskilde, Denmark) with 10 ml medium in 37° C. in a humidified atmosphere of 95% air and 5% CO2 and subcultured at 4- to 6-day intervals. For measurement of cell growth, cells were seeded at density 5.0*10^3/well in 96 well dishes in DMEM+0.2% FBS for 3 days. Culture medium was then removed and cells were seeded in DMEM+0.2% FBS with 1 nM of basic fibroblast growth factor (FGF2). The addition of FGF2 induces cell proliferation of the HPASMCs. The FGF2 used was a recombinant human substance from Boehringer Mannheim Biochemica, Espoo, Finland. Various concentrations of D-myo-inositol-1,2,6-trisphosphate (IP3) were added and the number of parallel wells in each treatment was four. The proliferation of cells was analysed after 24 hours of incubation by labelling each well with 0.2 μCi of ^3H-thymidine for two hours. After that the cells were trypsinated and harvested on a filter. A Melt-on scintillator (Meltilex™ A; Wallac, Turku, Finland) was allowed to melt on the filter. The radioactivity of the sheets was counted on a liquid scintillator counter (1450 Microbeta Wallac, Turku, Finland).
Stimulation of proliferation was inhibited by the addition of IP3 with the following result:
In a procedure similar to the one described in Example 1, D-3,4,5-tri-O-(phenylcarbamoyl) myo-inositol-1,2,6-trisphosphate (PP 11-201) was added with the result shown below: […]
On the technique in general: Incorporation of labelled thymidine or its analogues reports DNA synthesis.

In the next data set the test system is Wistar rats. Kind of data set: Neointima formation after balloon catheter injury of the carotid artery in rats. The settings on record: for elasticity of the vessel walls (microscopic investigation): compared to the control group; for Neointima formation / Reduction (%) of neointima formation: rat carotid, 14 days post-operatively, 1 mg/kg/hr; for Neointima formation: subcutaneous osmotic minipumps; for Reduction (%) of neointima formation: versus saline control, osmotic minipumps. The data set is classed as in vivo, rat. How it is done: The effects on neointima formation was assessed after inducing vessel injury in rats with a balloon catheter. Neointima formation is an important part in the process of restenosis. Adult mate Wistar rats (250-260 g) were housed under standard conditions and were fed with commercial rat chow and water ad libitum. During the experiment D-myo-inositol-1,2,6-trisphosphate (IP3) was administered via subcutaneously operated osmotic minipumps with a dose level of 1 mg/kg/hr. A control group received saline solution by osmotic minipumps. The animals were anaesthetised with an intraperitoneal injection of ketamine, 100 mg/kg, (MTC Pharmaceuticals, Cambridge, Ontario, Canada) and xylazine, 10 mg/kg (Bayer Inc., Etobicoke, Ontario, Canada). Using a dissecting microscope, the left carotid artery was exposed on the ventral side of the neck via a midline incision. The bifurcation of the carotid artery was located and two ligatures were placed around the external carotid artery, which was then tied off with the distal ligature. After temporarily occluding the internal carotid artery with a vascular clamp, a small incision was made between the two ligatures placed around the external carotid artery to introduce the endothelial denudation device, an inflated […] Fogarty embolectomy catheter (Baxter Healthcare, Buckinghamshire, UK). Each animal was de-endothelialised by three passages of the catheter and the carotid artery was tied off proximal to the incision hole. The clamp was removed and the pulse of the carotid artery was rechecked. The skin incision was closed with a single suture. 14 days post-operatively, the animals were sedated. An abdominal incision was made to access the abdominal aorta for insertion of a cannula connected to a perfusion apparatus. The animals where killed by an overdose of anaestetic and then perfused with heparinised phosphate buffered saline (pH 7.4) at a rate of 100 ml/min per kg body weight and a pressure of 120 mm Hg. After replacement of saline, 4% paraformaldehyde in isotonic saline was introduced at the same flow rate. After fixation in situ, the carotids were dissected free. Three mid-carotid segments, approximately 10 mm long were rinsed and placed in 4% parafomaldehyde for another 16 hours before embedding and freezing in Tissue-Tek OCT media (Miles Inc., Elkhart, Ind., USA). Frozen sections were stained with Movat's pentachrome and immunohistochemistry was performed using antibodies in order to examine the process of restenosis by measurement of the neointima formation.
In a procedure similar to the one described in Example 3, D-3,4,5-tri-O-(phenylcarbamoyl)myo-inositol-1,2,6-trisphosphate (PP 11-201) was added with the result shown below: […]

As to `CCC(=O)OC1C(OC(=O)CC)C(OP(=O)(O)O)C(OP(=O)(O)O)C(OP(=O)(O)O)C1OC(=O)CC` [D-3,4,5-tri-O-propanoyl-myo-inositol-1,2,6-trisphosphate], the “Dose where effects are observed” value in the data set with mice is recorded as 256 mg/kg.

In the case of `CCCCOC[C@H]1O[C@H](OC)[C@H](OP(=O)(O)O)[C@@H](OP(=O)(O)O)[C@@H]1OP(=O)(O)O` [methyl-6-O-butyl-α-D-glycopyranoside-2,3,4-trisphosphate], the “Dose where effects are observed” value with mice was 256 mg/kg.

`O=P(O)(O)OC1CN(CCc2ccccc2)CC(OP(=O)(O)O)C1OP(=O)(O)O` (centres unmarked) [1,5-dideoxy-1,5-imino-N-(2-phenylethyl)arabinitol-2,3,4-trisphosphate]: in the data set on mice, the “Dose where effects are observed” value is recorded as more than 512 mg/kg.

On to `O=P(O)(O)O[C@@H]1[C@H](OP(=O)(O)O)[C@H](O)[C@@H](O)[C@H](O)[C@H]1OP(=O)(O)O` [IP3, D-myo-inositol-1,2,6-trisphosphate], for which the “inhibition (%) of FGF2-stimulated proliferation” value (“inhibition (%)” below) in data set [1] (1 μM) was 61%. In addition, the “inhibition (%)” value in data set [1] (10 μM) is listed as 44%. Besides, in data set [1] (100 μM), the “inhibition (%)” value stood at 68%. Moreover, in the data set on Wistar rats, the “elasticity of the vessel walls (microscopic investigation)” value was “improved”, the Neointima formation came out at 0.48 mm^2 and the “Reduction (%) of neointima formation” value turned out to be 57%. Also, the “Dose where effects are observed” value with mice is listed as more than 512 mg/kg.

As to “methyl-6-O-butyl-α-D-mannopyranoside-2,3,4-trisphosphate”, the “Dose where effects are observed” value in the data set with mice is listed as more than 512 mg/kg.

Turning to `O=C(Nc1ccccc1)O[C@@H]1[C@@H](OC(=O)Nc2ccccc2)[C@@H](OP(=O)(O)O)[C@@H](OP(=O)(O)O)[C@H](OP(=O)(O)O)[C@H]1OC(=O)Nc1ccccc1` [PP 11-201, D-3,4,5-tri-O-(phenylcarbamoyl)myo-inositol-1,2,6-trisphosphate], the “inhibition (%)” value is 49% in data set [1] (0.1 μM), 61% in data set [1] (1 μM) and 70% in data set [1] (10 μM). Moreover, the “elasticity of the vessel walls (microscopic investigation)” value in the data set with Wistar rats is “improved”. In addition, in the data set on Wistar rats, the Neointima formation worked out at 0.43 mm^2. Further, in the data set with Wistar rats, the “Reduction (%) of neointima formation” value came out at 62%.

Turning to `CCCCC(=O)OC1C(OC(=O)CCCC)C(OP(=O)(O)O)C(OP(=O)(O)O)C(OP(=O)(O)O)C1OC(=O)CCCC` [D-3,4,5-tri-O-pentanoyl-myo-inositol-1,2,6-trisphosphate], the “Dose where effects are observed” value in the data set on mice worked out at 128 mg/kg.

On to “1,2-O-ethylene-β-D-fructopyranoside-2,3,4-trisphosphate”, for which the “Dose where effects are observed” value in the data set on mice is more than 512 mg/kg.

As for `O=C(O)CP(=O)(O)O[C@@H]1[C@H](OP(=O)(O)CC(=O)O)[C@H](O)[C@@H](O)[C@H](O)[C@H]1OP(=O)(O)CC(=O)O` [D-myo-inositol-1,2,6-tris(carboxymetylphosphonate)], the “Dose where effects are observed” value with mice is more than 512 mg/kg.
